Test results reported in DBAASP.
≈ marks a conversion by molar mass, not a printed value. Each block holds one compound with its values, some of them ahead of it.

How the values were obtained:
Test in all cases: ≥ marks a high value that may be exact or a test limit, other limits are often not marked, values filed in µg/mL are converted to µM
Staphylococcus aureus = test system: Staphylococcus aureus
Streptococcus sanguinis = test system: Streptococcus sanguinis
[1] = test system: Staphylococcus aureus BNCC 186335
[2] = test system: Staphylococcus aureus ATCC 25923
[3] = test system: Pseudomonas aeruginosa BNCC 125486
Klebsiella pneumoniae = test system: Klebsiella pneumoniae
[4] = test system: Escherichia coli ATCC 25922
[5] = test system: Pseudomonas aeruginosa ATCC 27853
Escherichia coli = test system: Escherichia coli
Listeria monocytogenes = test system: Listeria monocytogenes
[6] = test system: Escherichia coli BNCC 133264
[7] = test system: Staphylococcus aureus ATCC 29213
[8] = test system: Staphylococcus aureus ATCC 6538
[9] = test system: Streptococcus iniae KCTC 3657
[10] = test system: Bacillus cereus ATCC 10876
[11] = test system: Salmonella enterica subsp. enterica serovar Typhimurium ATCC 14028
[12] = test system: Streptococcus dysgalactiae subsp. dysgalactiae ATCC 27957
[13] = test system: Streptococcus equi subsp. zooepidemicus ATCC 43079
[14] = test system: Streptococcus agalactiae ATCC 27956
[15] = test system: Enterococcus faecalis ATCC 29212
[16] = test system: Staphylococcus aureus CIP 53.156
[17] = test system: Listeria monocytogenes CIP 110871
[18] = test system: Vibrio vulnificus CIP 109783
[19] = test system: Escherichia coli CIP 54.8T
[20] = test system: Enterococcus faecalis CIP 76.117
[21] = test system: Aeromonas salmonicida CIP 103209T
Vibrio fluvialis = test system: Vibrio fluvialis
Vibrio alginolyticus = test system: Vibrio alginolyticus
Aeromonas hydrophila = test system: Aeromonas hydrophila
Vibrio parahaemolyticus = test system: Vibrio parahaemolyticus
Streptococcus pyogenes = test system: Streptococcus pyogenes

MIC [7]: > 41.9 µM | MIC [8]: 1.3 µM (≈ 3.97 µg/mL) | MIC (Klebsiella pneumoniae): 0.387 µM (≈ 1.18 µg/mL) | MIC [9]: 10.5 µM (≈ 32 µg/mL) | MIC [4]: 0.328 µM (≈ 1 µg/mL) | MIC [5]: 0.983 µM (≈ 3 µg/mL) | MIC (Escherichia coli): 1.54 µM (≈ 4.7 µg/mL) | MIC [10]: 3.28 µM (≈ 10 µg/mL) | MIC [11]: 0.164 µM (≈ 0.5 µg/mL) | MIC [12]: 13.1 µM (≈ 40 µg/mL) | MIC [13]: 6.6 µM (≈ 20.1 µg/mL) | MIC [14]: 13.1 µM (≈ 40 µg/mL) | MIC [15]: 13.1 µM (≈ 40 µg/mL)
Compound: CC[C@H](C)[C@H](NC(=O)[C@H](CCCN=C(N)N)NC(=O)[C@H](Cc1c[nH]c2ccccc12)NC(=O)CNC(=O)[C@H](Cc1ccc(O)cc1)NC(=O)[C@H](CCCN=C(N)N)NC(=O)[C@H](CCCN=C(N)N)NC(=O)[C@H](C)NC(=O)[C@H](Cc1ccccc1)NC(=O)[C@H](CCCN=C(N)N)NC(=O)CNC(=O)[C@H](C)NC(=O)CNC(=O)[C@H](CCCN=C(N)N)NC(=O)[C@@H](NC(=O)[C@H](Cc1ccccc1)NC(=O)[C@H](CCCN=C(N)N)NC(=O)[C@H](CCCN=C(N)N)NC(=O)[C@H](Cc1c[nH]c2ccccc12)NC(=O)[C@H](CCCN=C(N)N)NC(=O)[C@H](CO)NC(=O)[C@H](CCCN=C(N)N)NC(=O)[C@@H](N)[C@@H](C)O)[C@@H](C)CC)C(=O)N[C@@H](C)C(=O)O [TRSRWRRFIRGAGRFARRYGWRIA]

MIC (Vibrio fluvialis): ≥ 34 µM | MIC (Staphylococcus aureus): 34 µM (≈ 62.5 µg/mL) | MIC (Vibrio alginolyticus): 2.12 µM (≈ 3.9 µg/mL) | MIC (Escherichia coli): 2.12 µM (≈ 3.9 µg/mL) | MIC (Aeromonas hydrophila): 2.12 µM (≈ 3.9 µg/mL) | MIC (Streptococcus pyogenes): ≥ 34 µM
Compound: CC[C@H](C)[C@H](NC(=O)[C@H](CCCCN)NC(=O)[C@H](Cc1cnc[nH]1)NC(=O)[C@H](CC(C)C)NC(=O)[C@H](CC(C)C)NC(=O)[C@H](Cc1ccccc1)NC(=O)[C@H](CC(N)=O)NC(=O)[C@@H](N)C(C)C)C(=O)N[C@@H](Cc1ccc(O)cc1)C(=O)NCC(=O)N[C@@H](CC(N)=O)C(=O)N[C@H](C(=O)N[C@@H](CCCN=C(N)N)C(=O)N[C@@H](Cc1ccc(O)cc1)C(=O)N[C@@H](CO)C(=O)O)[C@@H](C)CC [VNFLLHKIYGNIRYS]
MIC (Vibrio parahaemolyticus): 17 µM (≈ 31.2 µg/mL)

Continued, compound first:

Compound: NC(=O)[C@H](Cc1ccccc1)NC(=O)[C@H](Cc1ccccc1)NC(=O)[C@H](Cc1ccccc1)NC(=O)[C@H](Cc1ccccc1)NC(=O)[C@@H](N)Cc1ccccc1 [FFFFF]
MIC (Staphylococcus aureus): 33.8 µM (≈ 25.5 µg/mL) | MIC (Streptococcus sanguinis): ≥ 36.3 µM

Compound: CC[C@H](C)[C@H](NC(=O)[C@H](CCCCN)NC(=O)[C@H](CC(N)=O)NC(=O)[C@H](CC(C)C)NC(=O)[C@@H](NC(=O)[C@H](CCCCN)NC(=O)[C@@H]1CCCN1)[C@@H](C)CC)C(=O)N[C@@H](CC(C)C)C(=O)NCC(=O)N[C@@H](CCCCN)C(=O)N[C@H](C(=O)N[C@@H](CC(C)C)C(=O)N[C@@H](CCCN=C(N)N)C(=O)N[C@@H](CC(C)C)C(=O)N[C@@H](C)C(=O)N[C@@H](C)C(=O)N[C@@H](C)C(=O)N[C@@H](Cc1ccccc1)C(=O)N[C@@H](CCCCN)C(N)=O)[C@@H](C)CC [PKILNKILGKILRLAAAFK]
MIC [1]: 0.949 µM (≈ 2 µg/mL) | MIC [2]: 3 µM (≈ 6.32 µg/mL) | MIC [3]: 1.9 µM (≈ 4 µg/mL) | MIC (Klebsiella pneumoniae): 6.25 µM (≈ 13.2 µg/mL) | MIC [4]: 1.5 µM (≈ 3.16 µg/mL) | MIC [5]: 1.5 µM (≈ 3.16 µg/mL) | MIC (Escherichia coli): 1.9 µM (≈ 4 µg/mL) | MIC (Listeria monocytogenes): 1.9 µM (≈ 4 µg/mL) | MIC [6]: 1.9 µM (≈ 4 µg/mL)

Compound: CC[C@H](C)[C@H](NC(=O)[C@H](CC(C)C)NC(=O)[C@H](CC(=O)O)NC(=O)[C@H](Cc1cnc[nH]1)NC(=O)[C@@H](NC(=O)[C@H](CO)NC(=O)[C@H](CCCCN)NC(=O)CNC(=O)[C@@H](NC(=O)[C@H](Cc1cnc[nH]1)NC(=O)[C@H](Cc1ccccc1)NC(=O)[C@H](CC(C)C)NC(=O)CNC(=O)CNC(=O)[C@@H](NC(=O)[C@@H](NC(=O)[C@H](Cc1cnc[nH]1)NC(=O)[C@H](Cc1cnc[nH]1)NC(=O)[C@@H](NC(=O)[C@@H](N)Cc1ccccc1)[C@@H](C)CC)[C@@H](C)CC)[C@@H](C)CC)C(C)C)[C@@H](C)CC)C(=O)N[C@@H](CCCN=C(N)N)C(=O)O [FIHHIIGGLFHVGKSIHDLIR]
MIC [16]: 7.07 µM (≈ 17 µg/mL) | MIC [17]: 15.8 µM (≈ 38.1 µg/mL) | MIC [18]: ≥ 35.4 µM | MIC [19]: 15.8 µM (≈ 38.1 µg/mL) | MIC [20]: 15.8 µM (≈ 38.1 µg/mL) | MIC [21]: 7.07 µM (≈ 17 µg/mL)
